# Laboratory results: patent US20230406847A1, “LIGANDS OF PROSTATE SPECIFIC MEMBRANE ANTIGEN (PSMA) CONTAINING HETEROAROMATIC LINKER BUILDING BLOCKS” (ABX ADVANCED B[…] GMBH, priority 2020, published 2023)
# Tested on: human PSMA+ LNCaP cells
# Assay: Internalization of radiolabelled compounds in LNCaP cells
# Assay type: cell-based
# Details: 0.75 h, 0.03 µM
# Experimental: Gallium labeling was carried out using 90 μL HEPES in water (580 mg/mL; ultrapure-grade, Merck, Darmstadt, Germany) mixed with 40 μL of [^68Ga]GaCl3. The pH of the mixture was adjusted to 3.8 to 4.1 with NaOH (30%; ultrapure-grade, Merck, Darmstadt, Germany). Subsequently 1.0 nmol of a synthesized compound of Example 3 to 10 was added and incubated at 98 ° C. for 10 to 15 minutes. For the competitive cell assay, the precursor amount was diminished to 0.5 nmol.
# Lutetium labelling was carried out using 115 μL of sodium acetate buffer (400 mM, pH mixed with 10 to 20 MBq [177Lu]LuCl3. Subsequently, 1.0 nmol of a synthesized compound of Example 3 to 10 was added and incubated at 98 ° C. for 20 to 25 minutes.
# Cell binding studies were performed using human PSMA+ LNCaP cells (ATCC CRL-1740) cultured in RPMI 1640 medium supplemented with 10% fetal bovine serum (Sera plus, PAN Biotech) and 2 mmol/l stable glutamine (PAN Biotech). Cells were grown at 37° C. in an incubator with humidified air and 5% CO2. Trypsin/EDTA 0.5%/0.02% in PBS (PAN Biotech) was used to harvest cells.
# 1×10^5 LNCaP cells were seeded in poly-L-lysine coated 24-well-plates for 24 h at 37° C. humidified air with 5% CO2. After removing the medium, cells were incubated with radiolabelled compounds of Example 11 (30 nM) for 45 minutes at 37° C. and at 4° C. respectively. For determination of specific cell uptake, cells were blocked with PMPA (Tocris) at a concentration of 500 μM. The cells were washed three times with 1 ml ice-cold PBS, twice with 500 μl glycine-HCl (50mM; pH 2.8) for 5 min at rt to remove the surface-bound radioactivity and with 1 ml ice-cold PBS. Subsequent the cells were lysed with 0.5 ml 0.3M NaOH. The internalized and the surface-bound fractions were measured in a gammacounter.
row,Structure (SMILES),internalisation rate (%)
1,"O=C(O)CC[C@H](NC(=O)N[C@@H](CCCCNC(=O)[C@H](Cc1ccc2ccccc2c1)NC(=O)[C@H]1CC[C@H](CNC(=O)CN2CCN(CC(=O)O)CCN(CC(=O)O)CCN(CC(=O)O)CC2)CC1)C(=O)O)C(=O)O [PSMA-617, (3S,10S,14S)-3-[(naphthalen-2-yl)methyl]-1,4,12-trioxo-1-[(1R,4S)-4-[[2-[4,7,10-tris(carboxymethyl)-1,4,7,10-etraazacyclododecan-1-yl]acetamido]methyl]cyclo-hexyl]-2,5,11 ,13-tetraazahexadecane-10,14,16-tricarboxylic acid, reference compound]",31.1

# Same assay, conditions: radiolabelled compounds (30 nM), 45 minutes, 37° C. and 4° C., LNCaP cells, specific uptake by blocking with PMPA 500 μM
row,Structure (SMILES),internalisation rate (%)
1,Cc1nc(CNC(=O)CN2CCN(CC(=O)O)CCN(CC(=O)O)CCN(CC(=O)O)CC2)sc1C(=O)N[C@@H](Cc1ccc2ccccc2c1)C(=O)NCCCC[C@H](NC(=O)N[C@@H](CCC(=O)O)C(=O)O)C(=O)O [Example ABX271],37.8
2,O=C(O)CC[C@H](NC(=O)N[C@@H](CCCCNC(=O)[C@H](Cc1ccc2ccccc2c1)NC(=O)c1ccc(CNC(=O)CN2CCN(CC(=O)O)CCN(CC(=O)O)CCN(CC(=O)O)CC2)s1)C(=O)O)C(=O)O [Example ABX272],41.4
3,O=C(O)CC[C@H](NC(=O)N[C@@H](CCCCNC(=O)[C@H](Cc1ccc2ccccc2c1)NC(=O)c1cc(CNC(=O)CN2CCN(CC(=O)O)CCN(CC(=O)O)CCN(CC(=O)O)CC2)on1)C(=O)O)C(=O)O [Example ABX288],33.2
4,O=C(O)CC[C@H](NC(=O)N[C@@H](CCCCNC(=O)[C@H](Cc1ccc2ccccc2c1)NC(=O)c1ccc(CNC(=O)CN2CCN(CC(=O)O)CCN(CC(=O)O)CCN(CC(=O)O)CC2)nc1)C(=O)O)C(=O)O [Example ABX289],55.7
5,O=C(O)CC[C@H](NC(=O)N[C@@H](CCCCNC(=O)[C@H](Cc1csc2ccccc12)NC(=O)c1cc(CNC(=O)CN2CCN(CC(=O)O)CCN(CC(=O)O)CCN(CC(=O)O)CC2)on1)C(=O)O)C(=O)O [Example ABX338],40.8
6,O=C(O)CC[C@H](NC(=O)N[C@@H](CCCCNC(=O)[C@H](Cc1ccc2ccccc2c1)NC(=O)c1cc(CNC(=O)[C@H](CCCCNc2ccc([N+](=O)[O-])cc2[N+](=O)[O-])NC(=O)CN2CCN(CC(=O)O)CCN(CC(=O)O)CCN(CC(=O)O)CC2)on1)C(=O)O)C(=O)O [Example ABX339],60.6
7,O=C(O)CC[C@H](NC(=O)N[C@@H](CCCCNC(=O)[C@H](Cc1csc2ccccc12)NC(=O)c1cc(CNC(=O)[C@H](CCCCNc2ccc([N+](=O)[O-])cc2[N+](=O)[O-])NC(=O)CN2CCN(CC(=O)O)CCN(CC(=O)O)CCN(CC(=O)O)CC2)on1)C(=O)O)C(=O)O [Example ABX341],61.3
8,O=C(O)CC[C@H](NC(=O)N[C@@H](CCCCNC(=O)[C@H](Cc1csc2ccccc12)NC(=O)c1cc(CNC(=O)[C@H](CCCCNC(=O)c2ccc(I)cc2)NC(=O)CN2CCN(CC(=O)O)CCN(CC(=O)O)CCN(CC(=O)O)CC2)on1)C(=O)O)C(=O)O [Example ABX346],46.7
